The values that follow come from patent US20200316084A1, “METHODS TO TARGET TRANSCRIPTIONAL CONTROL AT SUPER-ENHANCER REGIONS” (TOLERO PHARMACEUTICALS, INC., priority 2014, published 2020).

Data set [1] relates to c-MYC. Put plainly: c-MYC expression by RT-qPCR in MV4-11 cells. The class given is cell-based. The conditions noted are these: 2 hours, various concentrations. As for the experimental part: The c-MYC gene is well known to be regulated by the super-enhancer complex in AML cells. JQ-1, a BET protein inhibitor, and alvocidib, a Cdk inhibitor, were used alone and in combination in order to determine the effect of the drug(s) on c-MYC expression. MV4-11 cells were treated with various concentrations of alvocidib and/or JQ-1 for 2 hours. DMSO-treated controls were also included. Treatment was stopped by lysing the cells and isolating RNA for RT-qPCR analysis. The expression of c-MYC was determined and normalized to the housekeeping gene, HPRT1 and to the DMSO-treated control.

Data set [2] is described as follows: Body weight of MV4-11 xenograft mice. The class given is in vivo, athymic Nu/Nu mice. The conditions noted are these: throughout the study; 25 mg/kg JQ-1, 2.5 mg/kg alvocidib or both. The source says: (§1) The AML cell line, MV4-11 is MLL fusion and FLT3-ITD positive. The MLL fusion makes this cell line particularly dependent upon super-enhancer function for driving oncogenesis. MV4-11 cells were implanted subcutaneously in athymic Nu/Nu mice and allowed to establish until tumors reached 100-200 mm^3. JQ-1, a BET protein inhibitor, and alvocidib, a Cdk inhibitor, were used alone and in combination in order to determine the effect of the drug(s) on tumor volume. Animals were stratified into 4 groups and administered one of four treatments: vehicle, 25 mg/kg JQ-1, 2.5 mg/kg alvocidib, or a combination of the two drugs at these doses. The drugs were administered intraperitoneally, once daily for 5 days, for a total of 3 weeks. Tumor volume was measured twice weekly by caliper measurement. […] Weight gain in vehicle and individual drug-treated mice could be attributed to tumor growth. Weight gain in the mice given the combination treatment could be attributed to the overall health and food intake of the mice.

The subject of data set [3] is MV4-11. In words: Cell viability by Cell Titer GLO, MV4-11. Type of data set: cell-based. The conditions noted are these: then 48 h inhibitor. As for the experimental part:
(§2) MOLM13 and MV4-11 are MLL fusion and FLT3-ITD positive, AML cells lines. Both cell lines were treated with 20 nM of alvocidib, a Cdk inhibitor, for 48 hours or DMSO control, followed by the addition of JQ-1, an inhibitor of BET proteins, at various concentrations (10 μM-0.0003 μM) or by the addition of panobinostat, an inhibitor of HDAC, at various concentrations (10 μM-0.0003 μM) for 48 additional hours. At completion, cell viability was measured by Cell Titer GLO reagent. IC50 values were determined for JQ-1 and panobinostat with and without the low dose of alvocidib. Addition of 20 nM alvocidib increased the potency of JQ-1, as shown by an IC50 value of 2-fold lower.

In data set [4] the test system is MV4-11 cells. In words: MV4-11 subcutaneous xenograft, tumor volume by caliper. Type of data set: in vivo, athymic Nu/Nu mice. The conditions noted are these: for effect on tumor volume: 25 mg/kg JQ-1, 2.5 mg/kg alvocidib or both, intraperitoneally once daily for 5 days, total of 3 weeks.
Text: as §1

Data set [5] has as its system MOLM13. Put plainly: Cell viability by Cell Titer GLO, MOLM13. Type of data set: cell-based. The conditions noted are these: for IC50: MOLM13, then 48 h inhibitor. As for the experimental part:
as §2
For orientation: ATP-based viability assays read luminescence as a measure of living cells.

Data set [6] concerns MCL-1. Put plainly: MCL-1 mRNA expression time course in MV4-11 cells, RT-qPCR. The class given is cell-based. As to conditions: MV4-11, 100 nM. As for the experimental part:
MV4-11 cells were seeded and treated with alvocidib at a concentration of 100 nM. […] Cells were harvested and detection of mRNA was carried out using RT-qPCR analysis in the manner described in previous examples. Expression of MCL-1 was compared to expression of controls and untreated cells. […] There appears to be no inhibition on expression by the 3 hour time point.
For orientation: Quantitative PCR measures a nucleic acid by following its amplification.

Data set [7] relates to MCL-1. In words: MCL-1 mRNA expression in A549 cells, alvocidib with JQ-1, RT-qPCR. As to conditions: JQ-1 0 nM-50 nM 1 hour, then alvocidib 0 nM-100 nM 2 hours. Type of data set: cell-based, human.
Method: A549 cells were seeded and treated with alvocidib at concentrations ranging from 0 nM-100 nM in combination with JQ-1 at concentrations ranging from 0 nM-50 nM. Cells were first treated with JQ-1 for 1 hour followed by treatment with alvocidib for 2 hours.
The subject of data set [8] is MYC. Put plainly: MYC expression relative to HPRT in MV4-11 cells. Type of data set: cell-based. The conditions noted are these: alvocidib single agent, two hours. As for the experimental part:
(§3) To determine the MYC and MCL-1 inhibitory activity of alvocidib, MV4-11 cells were treated with alvocidib for two hours and the expression of MYC and MCL-1 relative to HPRT was determined.

Data set [9] relates to MCL-1 and c-MYC/N-MYC. In words: Protein expression by western blotting in A549 cells. The class given is cell-based, human. The conditions noted are these: 100 nM, time course. As for the experimental part:
(§4) A549 cells and SK-N-AS cells (human adrenal neuroblastoma cell line) were seeded and treated with alvocidib at concentrations of 100 nM and 300 nM respectively. Cells were collected at given times and total protein was extracted and detected using western blotting.

Data set [10] concerns the target CDK9 and Hexim1 (Homo sapiens, UniProt P50750). Put plainly: CDK9/Hexim1 association, immunoprecipitation and western blotting in MV4-11 cells. Type of data set: cell-based. As for the experimental part: MV4-11 cells were seeded and treated with alvocidib in identical concentrations and doses. Cells were collected at given times and subjected to high salt lysis buffer and immunoprecipitation followed by western blotting. […] FIGS. 11A and 11B provide results of a dose escalation study performed according to the above general procedure. […] Representative western blot is provided in FIG. 11A with quantification of the western blot in FIG. 11B.
Representative western blot is provided in FIG. 12A with quantification of the western blot in FIG. 12B.

The test system of data set [11] is MCL-1. In words: MCL-1 expression relative to HPRT in MV4-11 cells. Type of data set: cell-based. The conditions noted are these: alvocidib single agent, two hours. As for the experimental part: as §3
For data set [12], the system named is MCL-1 and c-MYC/N-MYC. In words: Protein expression by western blotting in SK-N-AS cells. The conditions noted are these: 300 nM, time course. The class given is cell-based, human. As for the experimental part: as §4
In general terms: In western blotting, separated proteins are transferred to a membrane and probed.

Data set [13] relates to MYC. Put plainly: MYC mRNA expression in A549 cells, RT-qPCR. The class given is cell-based, human. The conditions noted are these: 0-8 μM, 2 hours.
Method: (§5) A549 cells were seeded and treated with alvocidib at concentrations ranging from 0-8 μM for 2 hours. Following the treatment of solid tumor cells, cells were harvested and mRNA was detected using RT-qPCR in the manner described in previous examples.
Data set [14] deals with MCL-1. Put plainly: MCL-1 mRNA expression in A549 cells, RT-qPCR. The class given is cell-based, human. The conditions noted are these: 0-8 μM, 2 hours.
Method: as §5
In data set [15] the test system is super enhancer complex regulated genes. In words: Super enhancer complex regulated genes, mRNA expression in A549 cells. The class given is cell-based, human. As for the experimental part:
A549 cells are adenocarcinomic human alveolar basal epithelial cells used as a type II pulmonary epithelial model (solid tumor). These cells were seeded and treated with alvocidib in identical concentrations and doses. Treatment was stopped by lysing the cells and isolating RNA for RT-qPCR analysis. […] The expression of mRNA was determined and normalized to β-actin and the control.

Chain of CDK9 and Hexim1 (P50750 whole entry): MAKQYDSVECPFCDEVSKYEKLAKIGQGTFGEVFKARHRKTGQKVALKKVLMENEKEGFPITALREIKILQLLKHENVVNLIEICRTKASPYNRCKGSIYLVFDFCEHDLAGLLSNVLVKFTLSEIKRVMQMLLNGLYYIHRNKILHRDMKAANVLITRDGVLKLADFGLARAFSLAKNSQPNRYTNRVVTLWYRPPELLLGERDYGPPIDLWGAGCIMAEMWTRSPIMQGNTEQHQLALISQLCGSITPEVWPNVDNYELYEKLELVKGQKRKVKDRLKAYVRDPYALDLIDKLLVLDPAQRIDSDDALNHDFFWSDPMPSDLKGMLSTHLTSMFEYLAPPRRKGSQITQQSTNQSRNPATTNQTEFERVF
Chain of CDK9 and Hexim1 (O60563 whole entry partner): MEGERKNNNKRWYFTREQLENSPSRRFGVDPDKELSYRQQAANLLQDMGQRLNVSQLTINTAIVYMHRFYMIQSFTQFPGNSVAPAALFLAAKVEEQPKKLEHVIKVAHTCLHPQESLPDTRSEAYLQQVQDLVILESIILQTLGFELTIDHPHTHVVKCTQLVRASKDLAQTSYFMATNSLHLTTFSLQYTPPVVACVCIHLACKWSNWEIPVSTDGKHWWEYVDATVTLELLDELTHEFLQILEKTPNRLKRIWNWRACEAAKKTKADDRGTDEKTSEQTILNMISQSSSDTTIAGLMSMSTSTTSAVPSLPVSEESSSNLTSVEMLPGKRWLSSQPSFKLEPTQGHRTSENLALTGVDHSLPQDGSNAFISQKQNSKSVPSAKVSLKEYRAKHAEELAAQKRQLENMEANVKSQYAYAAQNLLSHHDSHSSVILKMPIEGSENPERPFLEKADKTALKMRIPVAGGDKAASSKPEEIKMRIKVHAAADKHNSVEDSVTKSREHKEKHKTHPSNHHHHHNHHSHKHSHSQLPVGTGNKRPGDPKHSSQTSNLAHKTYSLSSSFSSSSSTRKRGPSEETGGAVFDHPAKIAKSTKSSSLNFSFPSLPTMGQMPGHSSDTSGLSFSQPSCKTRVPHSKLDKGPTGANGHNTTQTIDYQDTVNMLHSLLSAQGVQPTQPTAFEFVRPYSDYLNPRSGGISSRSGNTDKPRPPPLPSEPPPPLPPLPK

For orientation: IC50 means the concentration that gives 50% inhibition. Low readings indicate greater potency in that assay, high ones weaker potency in that assay. Turning to `Cc1sc2c(c1C)C(c1ccc(Cl)cc1)=N[C@@H](CC(=O)OC(C)(C)C)c1nnc(C)n1-2` [JQ-1], the “expression of c-MYC normalized to HPRT1 and DMSO control” value in data set [1] is reported as “downregulated”. Also, in data set [2], the body weight result was “comparable”. Moreover, the IC50 in [3] (20 nM alvocidib 48 h) turned out to be 0.133 µM; in data set [3] (without alvocidib (DMSO 48 h)), 0.228 µM; in [5] (20 nM alvocidib 48 h) it was 0.209 µM; in [5] (without alvocidib (DMSO 48 h)), 0.526 µM. In addition, the “effect on tumor volume” value in data set [4] is “no measurable activity”. In addition, in data set [5] (MOLM13 and MV4-11), the “fold lower IC50 on addition of 20 nM alvocidib” value is 2 fold.
As for `Cc1[nH]c2ccccc2c1CCNCc1ccc(/C=C/C(=O)NO)cc1` [Panobinostat, panobinostat], the half-inhibitory concentration (IC50) in data set [3] (Homo sapiens, MV4-11, 48 h, 20 nM alvocidib 48 h) came to 0.003 µM; in data set [3] (Homo sapiens, MV4-11, 48 h, without alvocidib (DMSO 48 h)), 0.018 µM; in [5] (Homo sapiens, MOLM-13, 48 h, 20 nM alvocidib 48 h), 0.005 µM; in data set [5] (Homo sapiens, MOLM-13, 48 h, without alvocidib (DMSO 48 h)), 0.016 µM.
As for `CN1CC[C@H](c2c(O)cc(O)c3c(=O)cc(-c4ccccc4Cl)oc23)[C@H](O)C1` [alvocidib], the “MCL-1 mRNA expression” value is given as “repressed” in [6] (30 minute time point); “maximum repression” in data set [6] (1 hour post-dose); “repression is reduced” in data set [6] (2 hour time point); “no inhibition” in [6] (3 hour time point); “represses MCL-1 mRNA expression” in data set [7]. For the same compound, the MYC expression entry in [8] was “completely eliminates”. Moreover, the “protein expression of MCL-1 and c-MYC/N-MYC” value in data set [9] and in data set [12] was “represses protein expression” each time. Also, in data set [1], the “expression of c-MYC normalized to HPRT1 and DMSO control” value was “downregulated”. The body weight result in data set [2] is given as “comparable”. Besides, in data set [4] (2.5 mg/kg alvocidib i.p., throughout the study), the “tumor size relative to vehicle” value is on record as “approximately 50%”. In addition, in [4], the “effect on tumor volume” value is given as “moderate activity”. Besides, the CDK9/Hexim1 association entry in data set [10] (500 nM dose, half hour time point) was “increased CDK9/Hexim1 association”; in data set [10] (2 hr treatment, different doses) it was “dose dependent increase”. Moreover, in data set [10] (1 mM alvocidib, time course), the “association of CDK9 and Hexim1” value is “increases association of CDK9 and Hexim1 in a time dependent manner”. In addition, the “reduction of MCL-1 expression” value in data set [11] worked out at 60%. The “MYC mRNA expression relative to HPRT1” value in [13] is listed as “represses MYC mRNA expression in a dose dependent manner”. The “MCL-1 mRNA expression relative to HPRT1” value in [14] is given as “represses MCL-1 mRNA expression in a dose dependent manner”. Besides, the mRNA expression result in data set [15] (0.1 μM dose, 2 hour time point) is “noticeably repressed”. Moreover, the “expression of mRNA normalized to β-actin and control” value in data set [15] (24 and 48 hour time points) is “downregulated the expression of mRNA completely”. Besides, in [15] (doses of 1 μM up to 8 μM, 2 hours), the “mRNA expression relative to β-actin and vehicle control” value was “Complete repression”.
